Measured values taken from US12636342B2, “TARS derived from Akkermansia muciniphila or fragment thereof, and use thereof” (KOREA RESEARCH INSTITUTE OF BIOSCIENCE AND BIOTECHNOLOGY, priority 2020, dated 2026).
Each block holds one molecule with its values, some of them ahead of it.

What was measured:
BMDMs = assay: AmTARS-stimulated BMDMs pre-treated with kinase/CREB inhibitors; type: cell-based, mouse; conditions: for IL-10 production by AmTARS: BMDMs pre-treated 1 h with inhibitor (10 μM; 666-15 1 μM) before AmTARS 24 h; for macrophage polarization (CD206 positive) by AmTARS: BMDMs pre-treated 1 h with inhibitor before AmTARS 24 h
Protocol: (A and B) Analysis of key molecules that inhibit the MAPK and PI3K/AKT signaling pathways. IL-10 produced by BMDMs pre-treated with inhibitors of ERK (PD98059, […]), p38 (SB203580, […]), MSK1/2 (SB747651A, 10 μM), CREB (666-15, 1 μM), PI3K (Wortmannin, 10 μM), and AKT1/2 (AKT1/2, 10 μM) for 1 h before treatment with either PBS or AmTARS for 24 h (n=6 per group) (A). Flow cytometry analysis of M2 macrophages in BMDMs pre-treated for 1 h with the indicated kinase inhibitors, before treatment with either PBS or AmTARS for 24 h (n=3 per group) (B). (C and D) Western blot analysis of MAPK signaling molecules in lysates of BMDMs (C) or THP1 cells (D) treated for different times with 0.5 μM AmTARS. (E) Western blot analysis of lysates of BMDMs pre-treated with α-IgG (Isotype, 1 μg ml-1) or α-TLR2 (1 μg ml-1) for 1 h before treatment with PBS, AmTARS (0.5 μM), or Pam3 (0.5 μM) for 30 min. (F and G) Western blot analysis of PI3K/AKT signaling molecules in lysates of BMDMs (F) or THP1 cells (G) treated with 0.5 μM AmTARS. […] Activation of AKT, ERK, and CREB was measured by western blot analysis of lysates of THP1 cells pre-treated with α-IgG, α-TLR1, α-TLR2, or α-TLR6 (1 μg ml-1) for 1 h before treatment for 30 min with PBS or AmTARS (0.5 µM). […] P-values were calculated using an unpaired two-tailed Student's t-test. Data shown in (C-H) are representative and repeated at least three times.
To identify the signaling pathway triggered by AmTARS, we first evaluated kinases and CREB. IL-10 production and M2 polarization were measured in BMDMs treated with inhibitors of ERK (PD98059), p38 (SB203580), MSK1/2 (SB747651A), CREB (666-15), PI3K (Wortmannin) and AKT (AKT1/2) before subsequent stimulation with AmTARS.

[1] = test system: mouse bone marrow-derived macrophages (BMDMs); assay: ELISA of immune cytokine secretion in LPS-treated BMDMs (inflammatory environment); type: cell-based
Protocol: To determine whether AmTARS affects immune cytokine secretion when cellular inflammation was induced, mouse bone marrow-derived macrophages BMDMs as mouse-derived immune cells and human macrophages THP1 as human-derived immune cells were cultured by way of the same method as in Example 2.
Specifically, the cultured BMDMs and THP1 were treated with lipopolysaccharide (LPS) to induce an inflammatory response and were simultaneously treated with AmTARS at 0.1 μM, 0.2 μM, and 0.5 μM for 24 h to obtain cell cultures. The obtained cell cultures were analyzed for immune cytokine secretion by way of the same method as in Example 2.
Next, BMDMs were treated with LPS to create an inflammatory environment by way of the same method as in Example 3, and then treated with each TARS (AmTARS, BfTARS, eTARS, and hTARS) to investigate the secretion of IL-10.
An inflammatory environment was created through LPS in BMDMs by way of the same method as in Example 3, and then the cells were treated with the four types of fragments, and the immune cytokine secretion was determined by ELISA.

[2] = test system: mouse bone marrow-derived macrophages (BMDMs); assay: ELISA of immune cytokine secretion in BMDMs under normal conditions; type: cell-based; conditions: normal (non-inflammatory) conditions, 24 h
Protocol: Specifically, mouse bone marrow-derived macrophages (BMDMs) as mouse-derived immune cells were extracted from the mouse thighbone and shinbone, and then cultured in DMEM containing 10% fetal bovine serum (FBS) and antibiotics. Human macrophages (THP1) as human-derived immune cells were cultured in RPMI media containing 10% FBS and antibiotics.
The cultured cells were treated with AmTARS at 0.1 μM, 0.2 μM, and 0.5 μM for 24 h to obtain cell cultures. For cell removal, the media were centrifuged at 500×g for 10 min to obtain supernatants, which were then analyzed using an ELISA set (mouse interleukin (IL)-6, mouse IL-10, mouse tumor necrosis factor (TNF)-α, human IL-6, human IL-10, human TNF-α; BD Biosciences) to investigate the secretion of mouse- and human-derived immune cytokines. […]

[3] = Aminoacylation reaction (malachite green phosphate assay); type: biochemical; conditions: L-threonine, ATP, 30 min, free Pi at 620 nm
Protocol: TARS is an […] involved in protein synthesis, and the domain and site involved in its function are well known. The constructed deletion mutants were confirmed to have deletions of parts irrelevant to the function, but the aminoacylation reaction experiment was conducted to determine whether the deletion mutants performed the intrinsic functions thereof appropriately.
Specifically, a 2× reaction solution (100 mM Tris-HCl (pH 7.5), 20 mM MgCl2, 200 mM NaCl, 200 mM KCl, 2 mM DTT, 500 μM ATP, and 5 mM L-threonine) was prepared, and 25 μL of a reaction solution, 20 μL of distilled water, and 5 μL of protein were added to make a final 50 μL volume, followed by incubation for 30 min. Thereafter, a reaction was conducted using a malachite green phosphate assay kit (Bioassay Systems) for 30 min, and the free monophosphate group (Pi) was measured at a wavelength of 620 nm.

[4] = LPS-induced inflammatory environment, 24 h

- IL-10 production by AmTARS (BMDMs): significant suppression
- macrophage polarization (CD206 positive) by AmTARS (BMDMs): significant suppression
Molecule: CCn1c(-c2nonc2N)nc2cncc(CNC3CCNCC3)c21 [SB747651A]

Molecule: R2: Functional site 2 peptide, SEQ ID NO: 4, residues 290-312 of SEQ ID NO: 1 (KLSQEGASCAELFNGLATGTIEG; Functional region 2(290˜312))
- secretion of IL-6 ([1]; LPS, peptide 100 μM): reduced
- secretion of IL-10 ([1]; LPS, peptide 100 μM): increased
- secretion of IL-6 ([1]; LPS, peptide 300 μM): reduced
- secretion of IL-10 ([1]; LPS, peptide 300 μM): increased
- secretion of IL-6 [1, 4]: reduced
- secretion of IL-10 [1, 4]: increased

- IL-10 production by AmTARS (BMDMs): significant suppression
- macrophage polarization (CD206 positive) by AmTARS (BMDMs): significant suppression
Molecule: COc1cccc(-c2cc(=O)c3ccccc3o2)c1N [PD98059]

Molecule: O=c1[nH]c2ccccc2n1C1CCN(Cc2ccc(-c3nc4cc5[nH]cnc5cc4nc3-c3ccccc3)cc2)CC1 [AKT1/2]
- IL-10 production by AmTARS (BMDMs): significant suppression
- macrophage polarization (CD206 positive) by AmTARS (BMDMs): significant suppression

Molecule: C[S+]([O-])c1ccc(-c2nc(-c3ccncc3)c(-c3ccc(F)cc3)[nH]2)cc1 (stereo not shown) [SB203580]
- IL-10 production by AmTARS (BMDMs): significant suppression
- macrophage polarization (CD206 positive) by AmTARS (BMDMs): significant suppression

B1: eTARS: TARS derived from E. coli (protein)
chain: MPVITLPDGSQRHYDHAVSPMDVALDIGPGLAKACIAGRVNGELVDACDLIENDAQLSIITAKDEEGLEIIRHSCAHLLGHAIKQLWPHTKMAIGPVIDNGFYYDVDLDRTLTQEDVEALEKRMHELAEKNYDVIKKKVSWHEARETFANRGESYKVSILDENIAHDDKPGLYFHEEYVDMCRGPHVPNMRFCHHFKLMKTAGAYWRGDSNNKMLQRIYGTAWADKKALNAYLQRLEEAAKRDHRKIGKQLDLYHMQEEAPGMVFWHNDGWTIFRELEVFVRSKLKEYQYQEVKGPFMMDRVLWEKTGHWDNYKDAMFTTSSENREYCIKPMNCPGHVQIFNQGLKSYRDLPLRMAEFGSCHRNEPSGSLHGLMRVRGFTQDDAHIFCTEEQIRDEVNGCIRLVYDMYSTFGFEKIVVKLSTRPEKRIGSDEMWDRAEADLAVALEENNIPFEYQLGEGAFYGPKIEFTLYDCLDRAWQCGTVQLDFSLPSRLSASYVGEDNERKVPVMIHRAILGSMERFIGILTEEFAGFFPTWLAPVQVVIMNITDSQSEYVNELTQKLSNAGIRVKADLRNEKIGFKIREHTLRRVPYMLVCGDKEVESGKVAVRTRRGKDLGSMDVNEVIEKLQQEIRSRSLKQLEE
modifications: 6xHis tag; misc_feature 1..1929 Escherichia coli TARS
- secretion/production of IL-10 [2]: no anti-inflammatory immune function
- secretion of IL-10 [1, 4]: not significantly increased

B2: Akkermansia muciniphila-derived YARS (protein)
chain: MTIDEQLDILMGGTAVVISREELKERLKLGRPLRVKLGVDPTAPDIHLGHTVAIEKLRQFQELGHQAVLLIGDFTATIGDPSGRSVTRPPLSREQVLENAETYTKQAFKILDRDKTEIVYNGDWFRKMTYEEVLKLNSRVTMQQMLAREDFKARVEGGKEVRLHEMQYPIMQGWDSVEIRADVELGGTDQLFNILVGRDLQKEEGMLPQIAMTMPLLEGLDGVRKMSKSYGNYVGVDESPEMMFGKMMSASDELMDRYYLVLLGEKRDMGLHPMEAKKLLAWKITARYHDSAAADAARSDWETRFSKRDLAAADLPEVEIASLPADMNALALVSFLFENVFQVKKSNGVLRKEHFTPGAIQLNDVKMTDPSAVLELAPGSILRLSKKHAVRFK
modifications: 6xHis tag; misc_feature 1..1182 Akkermansia muciniphila YARS
notes: Akkermansia muciniphila tyrosyl-tRNA synthetase, used as control
- aminoacylation reaction / enzymatic activity [3]: no reaction

B3: BfTARS: TARS derived from Bacteroides fragilis (protein)
chain: MIKITFPDGSVREYNEGVNGLQIAESISSRLAQDVLACGVNGEIYDLGRPINEDASVVLYKWEDEQGKHAFWHTSAHLLAEALQELYPGIQFGIGPAIENGFYYDVDPGEAVIKEADLPAIEAKMAELVAKKEAVVRRDIAKGDALKMFGDRGETYKCELISELEDGHITTYTQGDFTDLCRGPHLMTTAPIKAIKLTSVAGAYWRGHEDRKMLTRIYGITFPKKKMLDEYLALMEEAKKRDHRKIGKEMQLFMFSDTVGKGLPMWLPKGTALRLRLQDFLRRIQTRYDYQEVITPPIGNKLLYVTSGHYAKYGKDAFQPIHTPEEGEEYFLKPMNCPHHCEIYKNFPRSYKDLPLRIAEFGTVCRYEQSGELHGLTRVRSFTQDDAHIFCRPDQVKGEFLRVMDIISIVFRSMDFDNFEAQISLRDKVNREKYIGSDENWEKAEQAIIEACEEKGLKAKIEYGEAAFYGPKLDFMVKDAIGRRWQLGTIQVDYNLPERFELEYMGSDNQKHRPVMIHRAPFGSMERFVAVLIEHTAGKFPLWLTPEQVVILPISEKFNEYAEKVKTYLKMKEIRAIVDDRNEKIGRKIRDNEMKRIPYMLIVGEKEAENGEVSVRRQGEGDKGTMKFEEFGEILNEEVQNMINKW
modifications: 6xHis tag; misc_feature 1..1941 Bacteroides fragilis TARS
- secretion of IL-10 [1, 4]: not significantly increased

B4: hTARS: TARS derived from Homo sapiens (protein)
chain: MFEEKASSPSGKMGGEEKPIGAGEEKQKEGGKKKNKEGSGDGGRAELNPWPEYIYTRLEMYNILKAEHDSILAEKAEKDSKPIKVTLPDGKQVDAESWKTTPYQIACGISQGLADNTVIAKVNNVVWDLDRPLEEDCTLELLKFEDEEAQAVYWHSSAHIMGEAMERVYGGCLCYGPPIENGFYYDMYLEEGGVSSNDFSSLEALCKKIIKEKQAFERLEVKKETLLAMFKYNKFKCRILNEKVNTPTTTVYRCGPLIDLCRGPHVRHTGKIKALKIHKNSSTYWEGKADMETLQRIYGISFPDPKMLKEWEKFQEEAKNRDHRKIGRDQELYFFHELSPGSCFFLPKGAYIYNALIEFIRSEYRKRGFQEVVTPNIFNSRLWMTSGHWQHYSENMFSFEVEKELFALKPMNCPGHCLMFDHRPRSWRELPLRLADFGVLHRNELSGALTGLTRVRRFQQDDAHIFCAMEQIEDEIKGCLDFLRTVYSVFGFSFKLNLSTRPEKFLGDIEVWDQAEKQLENSLNEFGEKWELNSGDGAFYGPKIDIQIKDAIGRYHQCATIQLDFQLPIRFNLTYVSHDGDDKKRPVIVHRAILGSVERMIAILTENYGGKWPFWLSPRQVMVVPVGPTCDEYAQKVRQQFHDAKFMADIDLDPGCTLNKKIRNAQLAQYNFILVVGEKEKISGTVNIRTRDNKVHGERTISETIERLQQLKEFRSKQAEEEF
modifications: 6xHis tag; misc_feature 1..2175 Homo sapiens TARS
- secretion of IL-10 [1, 4]: not significantly increased
